Source: patent publication US20220098620A1, “NOVEL NUCLEIC ACID MODIFIERS” (THE BROAD INSTITUTE, INC., priority 2019, published 2022)

Tested on: GAPDH locus
Assay: HiBiT sequence knock-in assay (NanoLuc luciferase complementation)
Assay type: cell-based
Text: FIG. 39A-39E—Schematic of the HiBiT assay to check the HDR-mediated knock-in of the 33-nt DNA fragment. (FIG. 39A) General gRNA and ssODN design strategy for HDR-based HiBiT sequence knock-in right before the stop codon of the gene of interest. (FIG. 39B) The knock-in results in the expression of a fusion protein having a C-terminal HiBiT tag, which is a small fragment of the NanoLuc luciferase. When an excess amount of the other fragment of NanoLuc (LgBiT) is supplied, a fully functional NanoLuc is reconstituted. The resulting luminescence signal is proportional to the HDR efficiency. […]
Applicants then designed an ssODN that would insert a 33-nt DNA fragment (HiBiT sequence) at a gene of interest by HDR pathway (FIG. 39A). […] When complemented by LgBiT, the remainder of NanoLuc, the full-length luciferase is reconstituted to generate a luminescence signal proportional to the degree of ssODN incorporation, providing an easy readout for measuring the level of HDR (FIG. 39B). Applicants chose GAPDH as the first target gene (FIG. 39C) owing to its abundant expression in many cell types, which should allow for the reliable detection of the luminescence signal. […] Using the negative control ssODN without the complementary sequence, Applicants determined if appending the DNA adaptor to the cysteine affected Cas9 activity using the HiBiT insertion assay (FIG. 13b). […]

Row | SMILES | HDR enhancement by NHEJ pathway inhibitors in the HiBiT assay
1 | CCN1CCN(CC(=O)Nc2ccc(-c3cccc4c(=O)cc(N5CCOCC5)oc34)c3sc4ccccc4c23)CC1 [KU-0060648] | enhanced HDR enhancement
2 | O=c1cc(N2CCOCC2)oc2c(-c3cccc4c3sc3ccccc34)cccc12 [KU-57788] | enhanced HDR enhancement
